# Patent publication US12209135B2, “Anti-CD45 antibodies and conjugates thereof” (priority 2019, dated 2025)
# Marks after values point to notes of the source that are not given here.
# Legend:
# [1] = system: REH-Luc ALL cells; test: REH-Luciferase ALL xenograft (CDX) model; type: in vivo, immune deficient mice (NSG-SGM3, or NSG); details: Table 23; 3 mg/kg QWx3
# Method: (§1) A panel of models were evaluated to mimic untreated and refractory disease: AML patient derived xenograft (PDX) models (from treatment naïve and relapsed post allogeneic HCT patients; all FLT-3+NPM1+), ALL cells from an immortalized cell line (REH-Luc), and T-ALL patient-derived xenograft (PDX) model (from a patient progressing post DHAP chemotherapy).
# (§2) AML #1 was derived from a treatment naïve patient (J000106134) and AML #2 was derived from a heavily pre-treated relapsed refectory patient post allogenic HSCT (J000106132), The T-ALL was derived from a patient progressing post DHAP chemotherapy. The cell line-derived ALL was transduced to express firefly luciferase. Cells of each tumor type were systemically inoculated into immune deficient mice (NSG-SGM3, or NSG).
# (§3) Treatment began when peripheral tumor burden of PDX (n=3-5/group), and CDX mice reached 2-16% blast in the peripheral blood or day 5 post implant for the REH-luc model (n=10/group).
# Bioluminescence signal was measured using the IVIS imaging system (PerkinElmer). Radiance (mean±SEM) was captured over a time course of the study. Representative bioluminescence signal pseudo colored images were captured on day 22-23 post-implantation for all treatment groups, as shown in FIG. 29C.
# [2] = system: AML #2 PDX; test: AML patient derived xenograft model AML #2 (relapsed refractory post allogeneic HSCT); type: in vivo, immune deficient mice (NSG-SGM3, or NSG); details: Table 26; 30 mg/kg QDx5
# Method: as §1, §2, §3
# (§4) In the AML patient derived xenograft (PDX) models from treatment naïve and relapsed post allogeneic […] patients, treatment began when 2-16% blasts were detected in the periphery (n=3-5 mice/group/AML PDX model). Mice were treated with a single intravenous dose of anti-human CD45-ADC (AbA-AM), isotype-ADC, or vehicle (PBS). Ara-c was administered intravenously once daily for five consecutive days.
# [3] = system: AML #1 PDX; test: AML patient derived xenograft model AML #1 (treatment naïve); type: in vivo, immune deficient mice (NSG-SGM3, or NSG); details: Table 25; 30 mg/kg QDx5
# Method: as §1, §2, §3, §4
# [4] = system: T-ALL PDX; test: T-ALL patient-derived xenograft (PDX) model; type: in vivo, immune deficient mice (NSG-SGM3, or NSG); details: for Median Survival (Days Post Implant): Table 24
# Method: as §1, §2, §3
# [5] = Quintieri et al. 2005; cited from earlier work
compound,measurement,setting,value
"COc1cccc2c1C(=O)c1c(O)c3c(c(O)c1C2=O)C[C@@](O)(C(=O)CO)C[C@@H]3O[C@H]1C[C@H](N)[C@H](O)[C@H](C)O1 [Doxorubicin, doxorubicin]",Median Survival (Days Post Implant),[1],50^† Days
Nc1ccn([C@@H]2O[C@H](CO)[C@@H](O)[C@@H]2O)c(=O)n1 [Ara-C],Median Survival (Days Post Implant),[2],60^†‡ Days
same,Median Survival (Days Post Implant),[3],97^† Days
same,Median Survival (Days Post Implant),[4]; 30 mg/kg QDx5,77*^† Days
"C[C@@H]1C[C@H]2[C@@H]3CCC4=CC(=O)C=C[C@]4(C)[C@@]3(F)[C@@H](O)C[C@]2(C)[C@@]1(O)C(=O)CO [Dexamethasone, dexamethasone]",Median Survival (Days Post Implant),[4]; 5 mg/kg Q3Dx9,47*^‡ Days
same,median survival,"[4]; text b933, AbA-AM1 single injection 3, or 6 mg/kg on day 5, n=5 mice/group",47 days
COc1cccc2c1C(=O)c1c(O)c3c(c(O)c1C2=O)C[C@@](O)(C(=O)CO)C[C@@H]3O[C@H]1CC2[C@H](O[C@@H]3[C@@H](OC)OCCN23)[C@H](C)O1 (stereo partly shown) [PNU-159682],cytotoxicity relative to the parent nemorubicin,[5],greater than 3000 fold
